pEC50, pKi: −log10 of the molar value.
How the values were obtained:
TYK2 = TYK2 (Homo sapiens (Human), UniProt P29597); assay: Tyk2 radioactive kinase assay; format: biochemical; conditions: ATP 10 μM
In short: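 Recombinant human TYK2 (Invitrogen) was mixed with 20 μM peptide substrate in a buffer of 20 mM Hepes pH 7.5, 10 mM MgCl2, 1 mM EGTA, 0.02% Brij35, 0.02 mg/mL BSA, 0.1 mM […], 2 mM DTT and 1% DMSO, and compounds in DMSO were added. Adding ^33P-ATP (10 μM ATP) started the reaction, which ran 120 min at room temperature. Mixtures were then spotted onto P81 ion-exchange paper, washed thoroughly in 0.75% phosphoric acid, and counted for radioactivity.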

JAK2 = JAK2 (Homo sapiens (Human), UniProt O60674); assay: JAK2 radioactive kinase assay; format: biochemical; conditions: ATP 10 μM
In short: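 Radiometric assay in Hepes pH 7.5, MgCl2, EGTA, Brij35, BSA, DTT, 1% DMSO, with 10 μM [33P]ATP, 120 min at room temp; P81 paper capture and counting. […]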

[1] = system: Tyk2-pSTAT4 (IL-12 induced pSTAT4); assay: IL-12 induced pSTAT4 in human PBMC; format: cell-based; conditions: Homo sapiens, PBMC, 0.5 h, 1.7 ng/mL IL-12, 30 minutes
Protocol: (§1) Human PBMC are isolated from buffy coat and are stored frozen for assays as needed. Cells for assay are thawed and resuspended in complete media containing serum, then cells are diluted to 1.67 E6 cells/ml so that 120 ul per well is 200,000 cells. 15 ul of compound or DMSO is added to the well at the desired concentrations and incubated at 1 hr at 37 C. 15 ul of stimulus (final concentration of 1.7 ng/mL IL-12) is added for 30 minutes prior to pSTAT4 and total STAT4 analysis using cell lysates prepared and analyzed by MSD reagents as per manufacturer protocol. The final DMSO concentration of compound in the assay is 0.1%.

[2] = system: JAK2-pSTAT5 (GM-CSF induced pSTAT5); assay: GM-CSF induced pSTAT5 in human PBMC; format: cell-based; conditions: Homo sapiens, PBMC, 20 min, 5 ng/mL GM-CSF
Protocol: as §1
Cells are prepared for analysis as in the above procedure and 15 ul of GM-CSF (final concentration 5 ng/mL) is added for 20 minutes prior to pSTAT5 and total STAT5 analysis using cell lysates prepared and analyzed by MSD reagents as per manufacturer protocol. The final DMSO concentration of compound in the assay is 0.1%.

Sequence of TYK2 (P29597 whole entry): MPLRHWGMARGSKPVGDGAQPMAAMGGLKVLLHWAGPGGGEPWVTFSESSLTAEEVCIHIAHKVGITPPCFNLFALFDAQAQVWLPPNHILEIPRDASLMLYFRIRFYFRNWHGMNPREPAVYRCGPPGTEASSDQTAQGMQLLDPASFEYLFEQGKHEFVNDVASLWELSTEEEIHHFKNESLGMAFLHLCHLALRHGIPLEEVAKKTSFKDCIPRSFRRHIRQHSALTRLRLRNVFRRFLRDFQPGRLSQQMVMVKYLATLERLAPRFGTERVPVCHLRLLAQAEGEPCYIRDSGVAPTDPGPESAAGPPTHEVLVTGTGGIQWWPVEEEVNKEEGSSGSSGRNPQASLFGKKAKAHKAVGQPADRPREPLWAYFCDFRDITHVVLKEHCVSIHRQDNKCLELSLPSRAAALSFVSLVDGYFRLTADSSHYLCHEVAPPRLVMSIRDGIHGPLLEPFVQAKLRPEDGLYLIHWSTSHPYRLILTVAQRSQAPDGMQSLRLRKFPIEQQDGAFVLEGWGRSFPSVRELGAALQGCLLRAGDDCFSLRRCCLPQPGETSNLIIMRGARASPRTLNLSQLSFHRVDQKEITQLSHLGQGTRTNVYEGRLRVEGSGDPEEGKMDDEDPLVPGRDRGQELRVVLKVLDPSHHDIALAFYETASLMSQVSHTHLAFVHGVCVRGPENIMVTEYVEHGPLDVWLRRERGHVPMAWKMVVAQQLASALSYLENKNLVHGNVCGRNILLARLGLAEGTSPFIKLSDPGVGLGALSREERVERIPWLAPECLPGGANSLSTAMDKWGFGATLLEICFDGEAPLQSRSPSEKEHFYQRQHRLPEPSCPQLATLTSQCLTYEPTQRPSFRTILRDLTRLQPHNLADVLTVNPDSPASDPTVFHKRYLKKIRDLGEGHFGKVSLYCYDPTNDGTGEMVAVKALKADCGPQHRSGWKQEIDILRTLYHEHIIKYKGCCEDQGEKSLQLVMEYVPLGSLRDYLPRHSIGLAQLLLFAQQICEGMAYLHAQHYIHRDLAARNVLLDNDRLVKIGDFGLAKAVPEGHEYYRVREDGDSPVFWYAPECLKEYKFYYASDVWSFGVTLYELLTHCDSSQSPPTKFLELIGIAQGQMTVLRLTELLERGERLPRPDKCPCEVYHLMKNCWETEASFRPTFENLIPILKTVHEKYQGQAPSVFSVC
Sequence of JAK2 (O60674 whole entry): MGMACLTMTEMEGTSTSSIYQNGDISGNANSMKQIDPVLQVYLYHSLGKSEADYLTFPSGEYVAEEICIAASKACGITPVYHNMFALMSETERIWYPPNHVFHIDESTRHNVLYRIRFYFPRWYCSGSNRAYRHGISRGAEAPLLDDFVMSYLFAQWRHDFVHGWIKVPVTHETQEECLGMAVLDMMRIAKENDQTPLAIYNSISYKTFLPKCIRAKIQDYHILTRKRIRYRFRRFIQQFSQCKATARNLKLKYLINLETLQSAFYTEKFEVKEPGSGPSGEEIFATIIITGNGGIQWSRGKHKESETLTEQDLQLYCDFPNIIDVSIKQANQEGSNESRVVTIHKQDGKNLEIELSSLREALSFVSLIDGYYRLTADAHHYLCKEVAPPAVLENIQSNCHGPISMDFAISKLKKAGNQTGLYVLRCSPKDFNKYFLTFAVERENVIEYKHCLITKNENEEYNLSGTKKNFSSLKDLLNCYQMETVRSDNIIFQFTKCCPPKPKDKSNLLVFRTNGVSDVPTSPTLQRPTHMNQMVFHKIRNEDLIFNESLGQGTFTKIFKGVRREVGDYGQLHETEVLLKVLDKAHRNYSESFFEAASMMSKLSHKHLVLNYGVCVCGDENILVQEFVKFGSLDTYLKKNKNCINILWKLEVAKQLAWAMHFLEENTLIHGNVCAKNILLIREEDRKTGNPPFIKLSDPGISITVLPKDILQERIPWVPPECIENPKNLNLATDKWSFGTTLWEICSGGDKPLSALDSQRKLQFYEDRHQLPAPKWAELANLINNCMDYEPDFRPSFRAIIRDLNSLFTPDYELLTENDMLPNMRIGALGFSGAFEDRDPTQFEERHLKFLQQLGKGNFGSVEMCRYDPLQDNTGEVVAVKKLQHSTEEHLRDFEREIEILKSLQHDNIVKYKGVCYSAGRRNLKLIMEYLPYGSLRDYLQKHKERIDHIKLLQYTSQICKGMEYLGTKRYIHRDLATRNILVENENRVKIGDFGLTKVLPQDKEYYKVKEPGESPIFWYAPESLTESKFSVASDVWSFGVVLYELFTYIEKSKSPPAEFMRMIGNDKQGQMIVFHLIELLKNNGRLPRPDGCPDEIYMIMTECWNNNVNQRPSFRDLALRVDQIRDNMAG

Structure (SMILES) | pKi (TYK2) | pKi (JAK2) | pEC50 [1] | pEC50 [2]
N#Cc1cccc(F)c1-c1cc(-n2ccc(N3CCC[C@H](O)[C@H](O)C3)n2)c2c(n1)CNC2=O [I-178, 2-(4-(3-((3R,4S)-3,4-dihydroxyazepan-1-yl)-1H-pyrazol-1-yl)-5-oxo-6,7-dihydro-5H-pyrrolo[3,4-b]pyridin-2-yl)-3-fluorobenzonitrile] | 8.00 to 10.00 | 7.00 to 8.00 | 5.70 to 7.00 | < 5.70
N#Cc1cccc(F)c1-c1cc(-n2ccc(N3CC[C@@]4(CCNC4=O)C3)n2)c2c(n1)CNC2=O [I-166, (S)-3-fluoro-2-(5-oxo-4-(3-(6-oxo-2,7-diazaspiro[4.4]nonan-2-yl)-1H-pyrazol-1-yl)-6,7-dihydro-5H-pyrrolo[3,4-b]pyridin-2-yl)benzonitrile] | 10.00 to 11.05 | 8.00 to 10.00 | 5.70 to 7.00 | 5.70 to 7.00
CCNC(=O)[C@H]1CCCN(c2ccn(-c3cc(-c4c(F)cccc4C#N)nc4c3C(=O)NC4)n2)C1 [I-171, (S)-1-(1-(2-(2-cyano-6-fluorophenyl)-5-oxo-6,7-dihydro-5H-pyrrolo[3,4-b]pyridin-4-yl)-1H-pyrazol-3-yl)-N-ethylpiperidine-3-carboxamide] | 8.00 to 10.00 | 7.00 to 8.00 | 5.70 to 7.00 | < 5.70
C[C@H]1CC[C@H](O)CN1c1ccn(-c2cc(-c3c(F)cccc3C#N)nc3c2C(=O)NC3)n1 [I-112, 3-fluoro-2-(4-(3-((2S,5S)-5-hydroxy-2-methylpiperidin-1-yl)-1H-pyrazol-1-yl)-5-oxo-6,7-dihydro-5H-pyrrolo[3,4-b]pyridin-2-yl)benzonitrile] | 8.00 to 10.00 | 7.00 to 8.00 | 5.70 to 7.00 | 5.70 to 7.00
N#Cc1cccc(F)c1-c1cc(-n2ccc(N3CCCC(N)(C(F)(F)F)C3)n2)c2c(n1)CNC2=O (stereo not shown) [I-84, 2-(4-(3-(3-amino-3-(trifluoromethyl)piperidin-1-yl)-1H-pyrazol-1-yl)-5-oxo-6,7-dihydro-5H-pyrrolo[3,4-b]pyridin-2-yl)-3-fluorobenzonitrile] | 10.00 to 11.05 | 8.00 to 10.00 | 7.00 to 7.52 | 5.70 to 7.00
N#Cc1cccc(F)c1-c1cc(-n2ccc(N3CCC[C@](N)(C(F)(F)F)C3)n2)c2c(n1)CNC2=O [I-119, (R)-2-(4-(3-(3-amino-3-(trifluoromethyl)piperidin-1-yl)-1H-pyrazol-1-yl)-5-oxo-6,7-dihydro-5H-pyrrolo[3,4-b]pyridin-2-yl)-3-fluorobenzonitrile] | 10.00 to 11.05 | 8.00 to 10.00 | 7.00 to 7.52 | 5.70 to 7.00
[2H]C1([2H])C[C@H](O)C([2H])([2H])N1c1ccn(-c2cc(-c3c(F)cccc3C#N)nc3c2C(=O)NC3)n1 [I-142, (S)-3-fluoro-2-(4-(3-(3-hydroxypyrrolidin-1-yl-2,2,5,5-d4)-1H-pyrazol-1-yl)-5-oxo-6,7-dihydro-5H-pyrrolo[3,4-b]pyridin-2-yl)benzonitrile] | 10.00 to 11.05 | 8.00 to 10.00 | 7.00 to 7.52 | 5.70 to 7.00
N#Cc1cccc(F)c1-c1cc(-n2ccc(N3CCC[C@@H](N4CCOCC4)C3)n2)c2c(n1)CNC2=O [I-158, (R)-3-fluoro-2-(4-(3-(3-morpholinopiperidin-1-yl)-1H-pyrazol-1-yl)-5-oxo-6,7-dihydro-5H-pyrrolo[3,4-b]pyridin-2-yl)benzonitrile] | 8.00 to 10.00 | 7.00 to 8.00 | 5.70 to 7.00 | < 5.70
CC(C)n1ccc(-c2cc(-c3c(F)cccc3C#N)nc3c2C(=O)NC3)n1 [I-57, 3-fluoro-2-(4-(1-isopropyl-1H-pyrazol-3-yl)-5-oxo-6,7-dihydro-5H-pyrrolo[3,4-b]pyridin-2-yl)benzonitrile] | 8.00 to 10.00 | 6.00 to 7.00 | 5.70 to 7.00 | 5.70 to 7.00
N#Cc1cccc(F)c1-c1cc(-n2ccc(N3CCC[C@@H](CO)C3)n2)c2c(n1)CNC2=O [I-97, (R)-3-fluoro-2-(4-(3-(3-(hydroxymethyl)piperidin-1-yl)-1H-pyrazol-1-yl)-5-oxo-6,7-dihydro-5H-pyrrolo[3,4-b]pyridin-2-yl)benzonitrile] | 8.00 to 10.00 | 7.00 to 8.00 | 7.00 to 7.52 | 5.70 to 7.00
CO[C@H]1CN(c2ccn(-c3cc(-c4c(F)cccc4C#N)nc4c3C(=O)NC4)n2)C[C@H]1O [I-153, 3-fluoro-2-(4-(3-((3R,4S)-3-hydroxy-4-methoxypyrrolidin-1-yl)-1H-pyrazol-1-yl)-5-oxo-6,7-dihydro-5H-pyrrolo[3,4-b]pyridin-2-yl)benzonitrile] | 8.00 to 10.00 |  | 7.00 to 7.52 | < 5.70
